96 compounds from PubChem BioAssay AID2423 (Broad Institute, 2010) can be followed below.

The structures appear in SMILES notation. pEC50: −log10 of the molar value. Results filed as inconclusive are left out. Activity calls are given as the source filed them. How the calls were made is not given here. A value given as a limit tells only on which side of the number the result lay.

This experiment concerns C. albicans CaCi-8 + fluconazole, Alamar Blue growth, 48 h. The experiment in a line: resistant C. albicans growth inhibition with fluconazole, dose response, CaCi-8 strain, Alamar Blue fluorescence (AID 2423).

With `Cc1cc(NC(=O)COC(=O)[C@@H](NS(=O)(=O)c2ccc(Br)cc2)C(C)C)no1`, the EC50 was > 15000 nM (inactive).

Consider `COc1cccc(/C=N/NC(=O)c2c(C)nc3ccc(Cl)cn23)c1O`, for which the pEC50 was 5.77.

Turning to `COC(CN(C)C(=O)c1ccc2c(c1)NC(=O)c1ccccc1S2)OC`, the EC50 was > 15000 nM (inactive).

`Cc1cc(NC(=O)c2c(F)cccc2Cl)n(-c2nc3ccccc3[nH]2)n1`: the pEC50 was 5.13.

With `Cc1ccc(/C=N/NC(=O)C2=NNC(c3ccccc3)(c3ccccc3)C2)c(O)c1`, the EC50 was > 16000 nM (inactive).

On to `COc1ccc(C(=O)C(CN2CCCC2)c2ccccc2)cc1` (stereo unspecified), for which the EC50 was > 16000 nM (inactive).

As to `COc1cccc2sc(Nc3nnc(-c4ccc(F)cc4)o3)nc12`, the negative-log EC50 (pEC50) is 5.91.

Regarding `O=C(CN1C(=O)S/C(=C\c2ccccn2)C1=O)Nc1ccccc1`, the EC50 was > 15000 nM (inactive).

Turning to `Cc1ccc(-c2cn(-c3ccccc3)c3[n+]2CCCS3)cc1`, the negative-log EC50 (pEC50) is 4.99.

For `C[C@]12CCC3[C@@H](CC[C@H]4C[C@@H](O)CC[C@]34C)C1CCC2=O` (stereo partly specified), the negative-log EC50 (pEC50) is 5.83.

In the case of `CN1/C(=C\C(=O)C[n+]2ccc(C(=O)c3ccccc3)cc2)C(C)(C)c2ccccc21`, the negative-log EC50 (pEC50) was 5.39.

As to `Cc1ccc(NC(=O)C2C(C(=O)O)C3C=CC2C32CC2)cc1` (stereo unspecified), the EC50 was > 16000 nM (inactive).

Take `CNC(=O)c1ccc2c(c1)nnn2C`: the EC50 is > 15000 nM (inactive).

Regarding `COc1cc2c(O)c3c(c(-c4ccc5c(c4)OCO5)c2cc1OC)C(=O)OC3`, the pEC50 is 5.66.

For the compound `C=CCOc1ccc(/C=C2\SC(=S)N(NS(=O)(=O)c3ccc(C)cc3)C2=O)cc1`, the negative logarithm of the EC50 (pEC50) was 5.48.

Consider `Brc1cccc(CSc2nnc(-c3ccncc3)o2)c1`, for which the EC50 was > 15000 nM (inactive).

As to `Cc1ccc(C)c(SCC(=O)Nc2nnc(-c3ccccc3)o2)c1`, the pEC50 was 5.65.

For the compound `Cc1cc(NC(=O)c2cccc(Oc3ccccc3)c2)n[nH]1`, the pEC50 is 5.80.

For the compound `O=C(NC1CCCCC1)C(c1ccc(Cl)cc1)N(C(=O)c1cnccn1)c1ccc2c(c1)OCO2` (stereo unspecified), the negative logarithm of the EC50 (pEC50) is 5.01.

For the compound `CC(C(=O)c1ccccc1)[n+]1cccc(Br)c1` (stereo unspecified), the EC50 was > 15000 nM (inactive).

Consider `O=C(Nc1nc(-c2ccccn2)cs1)c1ccc(Br)s1`, for which the negative logarithm of the EC50 (pEC50) is 6.00.

Take `COc1ccc(-c2cc(C(=O)NNC(=S)NC(=O)c3c(-c4ccccc4)noc3C)[nH]n2)cc1`: the negative logarithm of the EC50 (pEC50) was 5.61.

With `O=[N+]([O-])c1ccc(O)c(/C=N/Nc2ccc(Cl)nn2)c1`, the pEC50 is 5.74.

For the compound `CCOC(=O)N1C(=O)C2(CCCCC2)N(c2ccccc2Cl)C1=S`, the pEC50 is 5.70.

In the case of `CC(C)c1ccc(OCC(=O)Nc2cccc(C(=O)Nc3ccccc3C(=O)O)c2)cc1`, the EC50 was > 15000 nM (inactive).

With `CCOc1ccccc1C(=O)N/N=C/c1ccoc1`, the pEC50 is 5.66.

Take `CCc1cc(-c2n[nH]c(=S)n2-c2ccccc2C)cs1`: the negative-log EC50 (pEC50) was 6.38.

On to `CC(=O)N(O)CCCCCNC(=O)CCC(=O)N(O)CCCCCNC(=O)CCC(=O)N(O)CCCCCN`, for which the negative-log EC50 (pEC50) was 6.14.

`O=c1nc(/C=C/c2cc([N+](=O)[O-])ccc2Cl)cc(C(F)(F)F)[nH]1`: the pEC50 is 6.02.

For the compound `Cc1ccc(C(C)C)c(OCc2ccc(C(=O)N/N=C/c3cccc(O)c3O)cc2)c1`, the pEC50 was 6.10.

Consider `COc1ccc(C2C(C#N)=C(N)Oc3c2ccc2cccnc32)cc1OC` (stereo unspecified), for which the pEC50 is 6.02.

Take `N=C1/C(=C\c2ccc(SCc3ccccc3)o2)C(=O)N=C2SC=NN12`: the EC50 is > 15000 nM (inactive).

For the compound `Cc1ccc(NC(=O)c2ccccc2NS(=O)(=O)c2ccc(Cl)s2)cc1`, the negative logarithm of the EC50 (pEC50) was 5.94.

For `C=CCn1c(COc2ccc(F)cc2)nnc1SCC(=O)Nc1cccc(S(N)(=O)=O)c1`, the EC50 is > 16000 nM (inactive).

`COc1ccc(CCC(=O)N2CC(C)OC(C)C2)cc1` (stereo unspecified): the EC50 is > 15000 nM (inactive).

As to `COc1ccc(-c2nnc(NC(=O)c3ccc(S(=O)(=O)N4CCCc5ccccc54)cc3)o2)cc1`, the pEC50 was 6.71.

For `C/C(CC(C)(C)C1CCCCC1)=N\NC(N)=S`, the EC50 is > 16000 nM (inactive).

Regarding `CCCC(=O)NC(c1ccccc1)c1ccc2cccnc2c1O` (stereo unspecified), the pEC50 is 6.11.

As to `COc1cccc(NC(=O)c2ccc3nc(C)sc3c2)c1`, the pEC50 was 5.83.

In the case of `Oc1c(Br)cc(Br)cc1CNc1cccc2cccnc12`, the EC50 is > 15000 nM (inactive).

In the case of `CCc1ccc(/C=C2\SC(=S)N(CCCC(=O)Nc3ccccc3C(=O)O)C2=O)cc1`, the pEC50 is 6.52.

With `Oc1ccccc1/C=N/Nc1nccnc1Cl`, the negative logarithm of the EC50 (pEC50) is 5.89.

In the case of `CCCCC(=O)NC(c1ccco1)c1cc(Cl)c2cccnc2c1O` (stereo unspecified), the negative-log EC50 (pEC50) is 6.20.

As to `COc1cc(SC)ccc1C(=O)OCC(=O)NC1CC1`, the EC50 is > 15000 nM (inactive).

Turning to `O=S(=O)(O)c1cc(O)c2c(O)c(N=Nc3cc(Cl)ccc3O)c(S(=O)(=O)O)cc2c1`, the pEC50 was 5.12.

On to `COc1ccc(C(=O)NNC(=S)NC(=O)c2ccccc2)cc1`, for which the pEC50 is 5.58.

For `CC(C)CCN1C(=O)c2ccc(C(=O)Nc3ccc(Br)cc3C(=O)O)cc2C1=O`, the pEC50 was 5.90.

In the case of `CC1CCN(C(=O)Cn2c3ccccc3c3nc4n(c(=O)c32)CCS4)CC1`, the EC50 is > 16000 nM (inactive).

`CCN(CC)C(=O)Cn1c(=O)n(-c2ccccc2)c(=O)c2c3c(sc21)CCC3`: the EC50 was > 16000 nM (inactive).

With `COc1ccc(C2C(C(=O)c3cccs3)=C(O)C(=O)N2c2nncs2)cc1` (stereo unspecified), the pEC50 is 4.82.

In the case of `Cc1ccc(OCC(=O)N/N=C\c2c(C)[nH]n(-c3ccccc3)c2=O)c([N+](=O)[O-])c1`, the negative logarithm of the EC50 (pEC50) is 5.18.

For `CCCn1c(=N)n(CC(=O)c2ccc([N+](=O)[O-])cc2)c2ccccc21`, the EC50 was > 16000 nM (inactive).

Regarding `COc1cccc2sc(=NC(=O)CS(=O)(=O)c3ccc(Cl)cc3)n(C)c12`, the pEC50 was 5.19.

`COc1ccc(NC(=O)Nc2nc3c(s2)CCCC3)cc1`: the pEC50 is 5.56.

Turning to `Cn1c(NN)nc2sc3c(c2c1=O)CCC3`, the negative-log EC50 (pEC50) was 5.00.

As to `CCC(=O)NC(c1cccs1)c1cc(Cl)c2cccnc2c1O` (stereo unspecified), the negative-log EC50 (pEC50) is 6.43.

Take `CN(/C(=N/S(=O)(=O)c1cccs1)c1ccccc1)c1ccc(O)cc1`: the EC50 is > 15000 nM (inactive).

`O=C(Cc1ccc(Cl)cc1)NNC(=S)NC(=O)c1cccs1`: the negative-log EC50 (pEC50) is 5.80.

As to `Cc1cc(NCCCn2ccnc2)n2ncc(-c3ccc(Cl)cc3)c2n1`, the pEC50 is 5.88.

`CCOc1cc(N2CCOCC2)c(OCC)cc1NC(=O)COc1cccc2cccnc12`: the EC50 was > 15000 nM (inactive).

As to `Cc1cccc(NC(=O)CSC(N)=O)c1C`, the EC50 is > 15000 nM (inactive).

For the compound `COc1ccc(NS(=O)(=O)c2ccc3ccccc3c2)c2ncccc12`, the negative logarithm of the EC50 (pEC50) is 5.42.

Consider `CCCOC(c1ccccc1)(c1ccc(C(F)(F)F)cc1)C(Oc1nc(C)cc(C)n1)C(=O)O` (stereo unspecified), for which the pEC50 is 5.19.

Turning to `CNC(=O)Nc1cc(C(F)(F)F)cc(C(F)(F)F)c1`, the pEC50 is 6.13.

In the case of `COc1ccccc1NC(=O)CN1CCN(c2ccccc2OC)CC1`, the EC50 was > 16000 nM (inactive).

For `C=C(C)CSc1[nH]c(=O)cc(C)c1C#N`, the negative-log EC50 (pEC50) was 5.90.

As for `CCCCCCc1c(C)nc(-n2[nH]c(C)c(CCO)c2=O)[nH]c1=O`, the negative-log EC50 (pEC50) is 5.77.

Turning to `N#CC1=C(N)Oc2c(ccc3cccnc23)C1c1cccnc1` (stereo unspecified), the negative-log EC50 (pEC50) was 5.05.

Consider `COc1cccc(-c2nnc(NC(=O)c3ccc4ncsc4c3)o2)c1`, for which the pEC50 was 5.99.

In the case of `N#C/C(C(N)=O)=c1/ccc2c(c1)N1C3=C(CCCC3)CC3CCCCC31N=2` (stereo unspecified), the pEC50 was 5.51.

`Cc1ccc(/C=N/NC(=O)c2c(-c3ccccc3)noc2C)c(O)c1`: the pEC50 is 5.21.

With `COc1ccc(-[n+]2c(-c3ccccc3)cc(-c3ccccc3)cc2-c2ccccc2)cc1`, the EC50 was > 15000 nM (inactive).

As to `O=C(Cc1ccc(O)cc1)N/N=C/c1cccnc1`, the EC50 was > 16000 nM (inactive).

On to `Cc1cc(C(C#N)c2ccccc2F)n2ncnc2n1` (stereo unspecified), for which the pEC50 is 6.05.

For `Cn1c(=O)c(C(=O)NCCc2ccccc2)c(O)c2ccccc21`, the pEC50 was 4.89.

Turning to `Cc1nn(-c2ccccc2)c(N)c1N=Nc1ccc(Cl)cc1`, the pEC50 is 5.11.

Turning to `Oc1ccc2ccccc2c1/C=N/Nc1nnc(-c2ncc[nH]2)c2ccccc12`, the negative-log EC50 (pEC50) was 6.42.

For `O=C(Nc1cccc(NC(=O)c2ccccc2Cl)c1)c1ccc([N+](=O)[O-])o1`, the negative-log EC50 (pEC50) is 6.15.

For `O=c1[nH]n2c(C(F)(F)F)cc(C3CC3)nc2c1N=Nc1ccccc1`, the negative-log EC50 (pEC50) was 5.37.

Regarding `CCOC(=O)c1ccccc1OCc1cc(/C=N/n2cnnc2)ccc1OC`, the EC50 is > 15000 nM (inactive).

For the compound `Cc1ccc(S(=O)(=O)c2ncccc2[N+](=O)[O-])cc1`, the pEC50 was 5.96.

With `S=c1nc[nH]c2c1cnn2Cc1ccccc1`, the negative logarithm of the EC50 (pEC50) is 5.63.

As for `CCNC(=S)NNC(=O)c1cc(-c2ccc(OC)cc2)nc2ccccc12`, the negative logarithm of the EC50 (pEC50) was 5.36.

For the compound `O=[N+]([O-])c1c(C(Cl)Cl)nn(-c2ccc(Cl)cc2)c1N1CCCCC1`, the negative-log EC50 (pEC50) was 6.36.

Turning to `N/C(Cc1ccc(Cl)cc1Cl)=N\OC(=O)c1ccccc1`, the pEC50 was 6.08.

As to `C=C(C)c1cccc(C(C)(C)NC(=O)Nc2ccc(C(N)=O)cc2)c1`, the EC50 is > 15000 nM (inactive).

In the case of `CC1CCN(Cc2c(C(=O)N/N=C/c3cc(Br)ccc3O)nnn2-c2nonc2N)CC1`, the pEC50 was 6.04.

Consider `CC(=O)NC(c1ccc(C)cc1)c1cc([N+](=O)[O-])c2cccnc2c1O` (stereo unspecified), for which the pEC50 is 6.70.

As for `CSc1ccc(/C=C/C(=O)Nc2ccccc2)cc1`, the EC50 was > 15000 nM (inactive).

Regarding `CCCCCCCCC(=O)NNC(=O)c1c(O)c2ccccc2n(CC)c1=O`, the negative-log EC50 (pEC50) was 5.72.

For the compound `CS(=O)(=O)NN1C(=O)c2ccccc2NC1c1cccc2cccnc12` (stereo unspecified), the negative-log EC50 (pEC50) was 5.67.

With `CCc1nnc(NC(=O)CSc2ncc(-c3ccccc3)n2C)s1`, the negative-log EC50 (pEC50) was 5.78.

For the compound `O=C(NNC1=C(C(=O)C(F)(F)F)CCC1)c1cccc(Cl)c1`, the negative logarithm of the EC50 (pEC50) is 5.71.

On to `Cn1c(/C=C/c2cccc([N+](=O)[O-])c2)c([N+](=O)[O-])c(=O)n(C)c1=O`, for which the pEC50 was 5.60.

For the compound `Cc1ccc(/C=C/C(=O)c2ccccc(=O)c2O)c(C)c1`, the pEC50 is 5.90.

With `Cc1cc(C(=O)NNC(=S)NC(C)c2ccccc2)c2ccccc2n1` (stereo unspecified), the negative-log EC50 (pEC50) was 5.51.
